# Assay results published in PubChem BioAssay (NCI).
#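 How tested: cells in 96-well plates exposed to compound for 48 hours at five concentrations. The concentration for 50% growth inhibition is given as GI50. Definition used: TGI = concentration required for complete inhibition of growth.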
# How the values were obtained:
# Assay in all cases: DTP human tumour cell line panel, 48 h
# A498 renal = tested on: A498 renal
# MDA-MB-468 breast = tested on: MDA-MB-468 breast
# HT29 colon = tested on: HT29 colon
# LOX IMVI melanoma = tested on: LOX IMVI melanoma
# SK-MEL-2 melanoma = tested on: SK-MEL-2 melanoma
# MDA-MB-435 = tested on: MDA-MB-435
# SF-268 CNS = tested on: SF-268 CNS
# BT-549 breast = tested on: BT-549 breast
# DU-145 prostate = tested on: DU-145 prostate
# SNB-19 CNS = tested on: SNB-19 CNS
# MOLT-4 leukemia = tested on: MOLT-4 leukemia
# U251 CNS = tested on: U251 CNS
# NCI-H460 lung = tested on: NCI-H460 lung
# HS 578T breast = tested on: HS 578T breast
# IGROV1 ovarian = tested on: IGROV1 ovarian
# A549 NSCLC = tested on: A549 NSCLC
# NCI/ADR-RES ovarian = tested on: NCI/ADR-RES ovarian
# UACC-62 melanoma = tested on: UACC-62 melanoma
# SN12C renal = tested on: SN12C renal
# 786-0 renal = tested on: 786-0 renal
# RXF 393 renal = tested on: RXF 393 renal
# MALME-3M melanoma = tested on: MALME-3M melanoma
# SK-MEL-28 melanoma = tested on: SK-MEL-28 melanoma
# EKVX NSCLC = tested on: EKVX NSCLC
# NCI-H23 lung = tested on: NCI-H23 lung
# HOP-62 NSCLC = tested on: HOP-62 NSCLC
# CCRF-CEM leukemia = tested on: CCRF-CEM leukemia
# PC-3 prostate = tested on: PC-3 prostate
# OVCAR-3 ovarian = tested on: OVCAR-3 ovarian
# OVCAR-4 ovarian = tested on: OVCAR-4 ovarian
# SR leukemia = tested on: SR leukemia
# SK-MEL-5 melanoma = tested on: SK-MEL-5 melanoma
# CAKI-1 renal = tested on: CAKI-1 renal
# M14 melanoma = tested on: M14 melanoma
# NCI-H226 lung = tested on: NCI-H226 lung
# TK-10 renal = tested on: TK-10 renal
# RPMI-8226 leukemia = tested on: RPMI-8226 leukemia
# SF-295 CNS = tested on: SF-295 CNS
# HCT-15 colon = tested on: HCT-15 colon
# COLO 205 colon = tested on: COLO 205 colon
# OVCAR-8 ovarian = tested on: OVCAR-8 ovarian
# K-562 leukemia = tested on: K-562 leukemia
# NCI-H522 lung = tested on: NCI-H522 lung
# HL-60(TB) leukemia = tested on: HL-60(TB) leukemia
# SNB-75 CNS = tested on: SNB-75 CNS
# HCC-2998 colon = tested on: HCC-2998 colon
# MCF7 breast = tested on: MCF7 breast
# HOP-92 NSCLC = tested on: HOP-92 NSCLC
# OVCAR-5 ovarian = tested on: OVCAR-5 ovarian
# SW-620 colon = tested on: SW-620 colon
# T-47D breast = tested on: T-47D breast
# ACHN renal = tested on: ACHN renal
# UO-31 renal = tested on: UO-31 renal
# MDA-MB-231 breast = tested on: MDA-MB-231 breast
# SF-539 CNS = tested on: SF-539 CNS
# HCT-116 colon = tested on: HCT-116 colon
# UACC-257 melanoma = tested on: UACC-257 melanoma
# KM12 colon = tested on: KM12 colon
smiles,measurement,setting,value
O=C(NO)c1ccc(-c2nc3ccc4[nH]ncc4c3c3c2CCCC3)cc1,GI50,A498 renal,254 nM
same,TGI,A498 renal,2640 nM
same,GI50,MDA-MB-468 breast,97.9 nM
same,TGI,MDA-MB-468 breast,279 nM
same,GI50,HT29 colon,455 nM
same,TGI,HT29 colon,9840 nM
same,GI50,LOX IMVI melanoma,306 nM
same,TGI,LOX IMVI melanoma,1320 nM
same,GI50,SK-MEL-2 melanoma,247 nM
same,TGI,SK-MEL-2 melanoma,792 nM
same,GI50,MDA-MB-435,340 nM
same,TGI,MDA-MB-435,1490 nM
same,GI50,SF-268 CNS,298 nM
same,TGI,SF-268 CNS,1600 nM
same,GI50,BT-549 breast,187 nM
same,TGI,BT-549 breast,680 nM
same,GI50,DU-145 prostate,407 nM
same,TGI,DU-145 prostate,> 34900 nM
same,GI50,SNB-19 CNS,288 nM
same,TGI,SNB-19 CNS,1740 nM
same,GI50,MOLT-4 leukemia,244 nM
same,TGI,MOLT-4 leukemia,942 nM
same,GI50,U251 CNS,287 nM
same,TGI,U251 CNS,4970 nM
same,GI50,NCI-H460 lung,486 nM
same,TGI,NCI-H460 lung,2490 nM
same,GI50,HS 578T breast,191 nM
same,TGI,HS 578T breast,1300 nM
same,GI50,IGROV1 ovarian,318 nM
same,TGI,IGROV1 ovarian,3110 nM
same,GI50,A549 NSCLC,671 nM
same,TGI,A549 NSCLC,> 100000 nM
same,GI50,NCI/ADR-RES ovarian,1030 nM
same,TGI,NCI/ADR-RES ovarian,21000 nM
same,GI50,UACC-62 melanoma,237 nM
same,TGI,UACC-62 melanoma,1450 nM
same,GI50,SN12C renal,281 nM
same,TGI,SN12C renal,3390 nM
same,GI50,786-0 renal,307 nM
same,TGI,786-0 renal,1210 nM
same,GI50,RXF 393 renal,103 nM
same,TGI,RXF 393 renal,508 nM
same,GI50,MALME-3M melanoma,513 nM
same,TGI,MALME-3M melanoma,1730 nM
same,GI50,SK-MEL-28 melanoma,299 nM
same,TGI,SK-MEL-28 melanoma,1030 nM
same,GI50,EKVX NSCLC,480 nM
same,TGI,EKVX NSCLC,3260 nM
same,GI50,NCI-H23 lung,316 nM
same,TGI,NCI-H23 lung,1180 nM
same,GI50,HOP-62 NSCLC,253 nM
same,TGI,HOP-62 NSCLC,5210 nM
same,GI50,CCRF-CEM leukemia,361 nM
same,TGI,CCRF-CEM leukemia,> 100000 nM
same,GI50,PC-3 prostate,424 nM
same,TGI,PC-3 prostate,> 67200 nM
same,GI50,OVCAR-3 ovarian,377 nM
same,TGI,OVCAR-3 ovarian,11000 nM
same,GI50,OVCAR-4 ovarian,706 nM
same,TGI,OVCAR-4 ovarian,6380 nM
same,GI50,SR leukemia,117 nM
same,GI50,SK-MEL-5 melanoma,240 nM
same,TGI,SK-MEL-5 melanoma,1020 nM
same,GI50,CAKI-1 renal,260 nM
same,TGI,CAKI-1 renal,6810 nM
same,GI50,M14 melanoma,415 nM
same,TGI,M14 melanoma,1780 nM
same,GI50,NCI-H226 lung,296 nM
same,TGI,NCI-H226 lung,3090 nM
same,GI50,TK-10 renal,261 nM
same,TGI,TK-10 renal,10400 nM
same,GI50,RPMI-8226 leukemia,1650 nM
same,TGI,RPMI-8226 leukemia,> 44600 nM
same,GI50,SF-295 CNS,880 nM
same,TGI,SF-295 CNS,9760 nM
same,GI50,HCT-15 colon,250 nM
same,TGI,HCT-15 colon,8570 nM
same,GI50,COLO 205 colon,255 nM
same,TGI,COLO 205 colon,1480 nM
same,GI50,OVCAR-8 ovarian,300 nM
same,TGI,OVCAR-8 ovarian,13500 nM
same,GI50,K-562 leukemia,495 nM
same,TGI,K-562 leukemia,> 100000 nM
same,GI50,NCI-H522 lung,154 nM
same,TGI,NCI-H522 lung,990 nM
same,GI50,HL-60(TB) leukemia,339 nM
same,TGI,HL-60(TB) leukemia,2980 nM
same,GI50,SNB-75 CNS,207 nM
same,TGI,SNB-75 CNS,875 nM
same,GI50,HCC-2998 colon,300 nM
same,TGI,HCC-2998 colon,1390 nM
same,GI50,MCF7 breast,344 nM
same,TGI,MCF7 breast,3570 nM
same,GI50,HOP-92 NSCLC,426 nM
same,TGI,HOP-92 NSCLC,6110 nM
same,GI50,OVCAR-5 ovarian,479 nM
same,TGI,OVCAR-5 ovarian,3930 nM
same,GI50,SW-620 colon,245 nM
same,TGI,SW-620 colon,> 77900 nM
same,GI50,T-47D breast,196 nM
same,TGI,T-47D breast,1750 nM
same,GI50,ACHN renal,193 nM
same,TGI,ACHN renal,5960 nM
same,GI50,UO-31 renal,599 nM
same,TGI,UO-31 renal,8480 nM
same,GI50,MDA-MB-231 breast,350 nM
same,TGI,MDA-MB-231 breast,1490 nM
same,GI50,SF-539 CNS,168 nM
same,TGI,SF-539 CNS,455 nM
same,GI50,HCT-116 colon,119 nM
same,TGI,HCT-116 colon,33800 nM
same,GI50,UACC-257 melanoma,1290 nM
same,TGI,UACC-257 melanoma,> 23200 nM
same,GI50,KM12 colon,391 nM
same,TGI,KM12 colon,13700 nM
